Test [1] has as its target T1, PHD2 enzyme (residues 181-417) (Homo sapiens, UniProt Q9GZT9).
T1 construct: The IC50 values for the PHD2 enzyme (residues 181-417) were determined
The test is described as follows: Inhibition of PHD2 Enzyme (LC/MS detection of hydroxylated peptide). In kind it is biochemical. Conditions: 5 nM enzyme, 1 μM biotin-labeled peptide, 2 μM 2-oxoglutarate, 60 min pre-incubation, pH 7.3; -log(IC50), IC50 molar; read-out: Inhibition of PHD2 (pIC50) (converted). The procedure: The IC50 values for the PHD2 enzyme (residues 181-417) were determined by mixing increasing amounts of an inhibitor with a fixed amount of enzyme (5 nM, final concentration) and Biotin-labeled peptide (Biotin-Asp-Leu-Glu-Met-Leu-Ala-Pro-Tyr-Ile-Pro-Met-Asp-Asp-Asp-Phe-Gln-Leu, 1 μM final concentration) and 2-oxyglutarate (2 μM final concentration) in 50 mM HEPES, 50 mM KCl, 0.5 mM TCEP, 2 μM FeCl2, 0.1 mg/mL BSA, at pH 7.3. The reaction was conducted by pre-incubating the enzyme in the presence of the inhibitor for 60 minutes at room temperature. The activity of the free enzyme was measured by adding the peptide, the 2-oxoglutarate, and ascorbic acid (1 mM final concentration). The enzymatic activity was quenched after 60 minutes by adding an excess of a tight binding inhibitor to the assay mixture. The amount of product released was measured by using a LC/MS system (Agilent HPLC with Applied Biosystems API3000 Mass Spectrometer). Data were analyzed using the classical isotherm equation for the determination of IC50 values and are reported in Table 1, below, as pIC50, i.e., −log(IC50), where IC50 is molar concentration of the test compound at 50% inhibition.
(§1) Table 1 lists biological data for some of the compounds shown in the examples, where larger pIC50 and pEC50 values represent higher potency or activity, respectively. The IC50 data (reported in Table 1 as pIC50) were obtained using the enzyme-based assay described in the specification under the heading “Inhibition of PHD2 Enzyme.” The EC50 data (reported in Table 1 as pEC50) were obtained using the cell-based assay described in the specification under the heading “Cell-based HIF-α Stabilization Assay.”

Test [2] has as its system HIF1a protein content in H9c2 rat cardiomyocytes. Description: Cell-based HIF-α Stabilization Assay (HIF1a ELISA). Conditions: H9c2 cells, 24 hours compound incubation, concentration giving 50% of desferrioxamine maximum response, -log(EC50), EC50 molar, read-out: Stabilization of HIF-α (pEC50) (converted). The procedure: H9c2 rat cardiomyocytes (ATCC) were seeded in 96-well tissue culture microplates and cultured for 24 hours prior to addition of compounds (11 point range of serial dilutions) or DMSO vehicle. After 24 hours of compound incubation, whole cell extracts were prepared by lysing cells in cell extraction buffer containing protease and phosphatase inhibitors (Meso-Scale Discovery). HIF1a protein content was assessed by ELISA (Meso-Scale Discovery) and expressed as % relative to the maximum response obtained from the positive control, desferrioxamine (Sigma-Aldrich). EC50 for each compound was obtained by curve-fitting using XLfit4 MicroSoft Excel curve-fitting software to calculate the compound concentration that results in 50% of the desferrioxamine maximum response.
as §1
(In general: In an ELISA, binding on a coated surface is turned into a signal by an enzyme label.)

SMILES strings stand for the structures.

T1 sequence (Q9GZT9 181-417): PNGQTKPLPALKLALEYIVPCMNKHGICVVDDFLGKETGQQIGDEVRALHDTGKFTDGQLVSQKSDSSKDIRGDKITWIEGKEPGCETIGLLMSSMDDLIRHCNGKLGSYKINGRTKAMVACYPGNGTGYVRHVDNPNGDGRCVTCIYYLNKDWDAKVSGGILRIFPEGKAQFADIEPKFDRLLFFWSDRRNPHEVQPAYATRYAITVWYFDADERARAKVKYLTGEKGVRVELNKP

For the molecule `N#Cc1ccc(CNC(=O)c2ncccc2O)cc1` [Example 1, N-(4-cyanobenzyl)-3-hydroxypicolinamide], in test [1], the IC50 is 0.0631 µM. Further, the EC50 in test [2] is 10 µM. `N#Cc1cccc(CNC(=O)c2ncccc2O)c1` [Example 2, N-(3-cyanobenzyl)-3-hydroxypicolinamide, reference compound]: the IC50 in test [1] was 3.16 µM. With `N#Cc1ccc(CNC(=O)c2ncccc2O)cn1` [Example 3, N-((6-cyanopyridin-3-yl)methyl)-3-hydroxypicolinamide], the IC50 in test [1] was 1 µM. As for `Cc1cc(C#N)ccc1CNC(=O)c1ncccc1O` [Example 4, N-(4-cyano-2-methylbenzyl)-3-hydroxypicolinamide], the IC50 in test [1] was 0.02 µM. Moreover, the EC50 in test [2] was 7.94 µM.

As for `N#Cc1ccc(CNC(=O)c2ncccc2O)c(F)c1` [Example 5, N-(4-cyano-2-fluorobenzyl)-3-hydroxypicolinamide], the IC50 in test [1] is 0.0316 µM. Besides, in test [2], the EC50 was 7.94 µM. Take `N#Cc1ccc(CNC(=O)c2ncccc2O)cc1F` [Example 6, N-(4-cyano-3-fluorobenzyl)-3-hydroxypicolinamide]: the IC50 in test [1] is 0.0316 µM. Moreover, in test [2], the EC50 was 6.31 µM. Turning to `N#Cc1ccc(CNC(=O)c2ncccc2O)c(C(F)(F)F)c1` [Example 7, N-(4-cyano-2-(trifluoromethyl)benzyl)-3-hydroxypicolinamide], in test [1], the IC50 was 3.98 µM.

For `CCN1CCN(C(=O)c2cnc(C(=O)NCc3ccc(C#N)cc3C)c(O)c2)CC1` [Example 8, N-(4-cyano-2-methylbenzyl)-5-(4-ethylpiperazine-1-carbonyl)-3-hydroxypicolinamide], the IC50 in test [1] was 0.1 µM. The EC50 in test [2] was 12.6 µM.

As for `CCN1CCN(C(=O)c2cnc(C(=O)N[C@@H]3CCc4cc(C#N)ccc43)c(O)c2)CC1` [Example 9, (R)—N-(5-cyano-2,3-dihydro-1H-inden-1-yl)-5-(4-ethylpiperazine-1-carbonyl)-3-hydroxypicolinamide], in test [1], the IC50 is 0.0501 µM. Further, in test [2], the EC50 is 12.6 µM. The corresponding values for `Cc1cc(C#N)cc(C)c1CNC(=O)c1ncccc1O` [Example 10, N-(4-cyano-2,6-dimethylbenzyl)-3-hydroxypicolinamide] are 0.0126 µM and 3.16 µM. For `Cc1cnc(C(=O)NCc2c(C)cc(C#N)cc2C)c(O)c1` [Example 11, N-(4-cyano-2,6-dimethylbenzyl)-3-hydroxy-5-methylpicolinamide] the same measures were 0.0316 µM and 7.94 µM.

Regarding `Cc1cc(CNC(=O)c2ncccc2O)c(C)cc1C#N` [Example 12, N-(4-cyano-2,5-dimethylbenzyl)-3-hydroxypicolinamide], in test [1], the IC50 was 0.0398 µM. In test [2], the EC50 was 25.1 µM. For `Cc1cc(C#N)c(F)cc1CNC(=O)c1ncccc1O` [Example 13, N-(4-cyano-5-fluoro-2-methylbenzyl)-3-hydroxypicolinamide], in test [1], the IC50 was 0.0158 µM. Moreover, the EC50 in test [2] is 10 µM.

`Cc1c(CNC(=O)c2ncccc2O)ccc(C#N)c1F` [Example 14, N-(4-cyano-3-fluoro-2-methylbenzyl)-3-hydroxypicolinamide]: in test [1], the IC50 was 0.0126 µM. The EC50 in test [2] is 12.6 µM. For `N#Cc1ccc(CNC(=O)c2ncccc2O)c(Cl)c1` [Example 15, N-(2-chloro-4-cyanobenzyl)-3-hydroxypicolinamide] the same measures were 0.0251 µM and 12.6 µM. Regarding `N#Cc1ccc(CNC(=O)c2ncc(C#N)cc2O)cc1` [Example 16, 5-cyano-N-(4-cyanobenzyl)-3-hydroxypicolinamide], the IC50 in test [1] was 0.251 µM. Moreover, the EC50 in test [2] is 6.31 µM. With `Cc1cc(C#N)ccc1CNC(=O)c1ncc(C#N)cc1O` [Example 17, 5-cyano-N-(4-cyano-2-methylbenzyl)-3-hydroxypicolinamide], in test [1], the IC50 is 0.316 µM. In test [2], the EC50 was 50.1 µM.

With `N#Cc1ccc2c(c1)CCCC2NC(=O)c1ncccc1O` (stereo not drawn) [Example 18, N-(6-cyano-1,2,3,4-tetrahydronaphthalen-1-yl)-3-hydroxypicolinamide], the IC50 in test [1] was 1.26 µM. Moreover, the EC50 in test [2] is 50.1 µM.

On to `N#Cc1ccc2c(c1)CC[C@H]2NC(=O)c1ncccc1O` [Example 19, (R)—N-(5-cyano-2,3-dihydro-1H-inden-1-yl)-3-hydroxypicolinamide], for which the IC50 in test [1] was 0.01 µM. Moreover, in test [2], the EC50 was 6.31 µM.

For the molecule `N#Cc1ccc2c(c1)CC[C@H]2NC(=O)c1ncccc1O` [Example 20, (R)—N-(5-cyano-2,3-dihydro-1H-inden-1-yl)-3-hydroxypicolinamide], in test [1], the IC50 was 0.0126 µM. `N#Cc1ccc2c(c1)CC[C@@H]2NC(=O)c1ncccc1O` [Example 21, (S)—N-(5-cyano-2,3-dihydro-1H-inden-1-yl)-3-hydroxypicolinamide]: the IC50 in test [1] is 2.51 µM. The EC50 in test [2] is 50.1 µM.

In the case of `N#Cc1ccc2c(c1)OCC2NC(=O)c1ncccc1O` (stereo not drawn) [Example 22, N-(6-cyano-2,3-dihydrobenzofuran-3-yl)-3-hydroxypicolinamide], the IC50 in test [1] is 0.0398 µM. For the same molecule, the EC50 in test [2] was 7.94 µM. As to `Cc1cnc(C(=O)N[C@@H]2CCc3cc(C#N)ccc32)c(O)c1` [Example 23, (R)—N-(5-cyano-2,3-dihydro-1H-inden-1-yl)-3-hydroxy-5-methylpicolinamide], the IC50 in test [1] was 0.0316 µM. Besides, in test [2], the EC50 was 7.94 µM. In the case of `N#Cc1ccc(CNC(=O)c2ncccc2O)nc1` [Example 24, N-((5-cyanopyridin-2-yl)methyl)-3-hydroxypicolinamide], the IC50 in test [1] was 0.398 µM. Further, in test [2], the EC50 was 7.94 µM. As to `Cc1cc(C#N)cc(C)c1CNC(=O)c1ncc(Cl)cc1O` [Example 25, 5-chloro-N-(4-cyano-2,6-dimethylbenzyl)-3-hydroxypicolinamide], the IC50 in test [1] was 0.02 µM. In addition, the EC50 in test [2] was 12.6 µM. For `Cc1cc(C#N)cc(C)c1CNC(=O)c1ncc(C#N)cc1O` [Example 26, 5-cyano-N-(4-cyano-2,6-dimethylbenzyl)-3-hydroxypicolinamide] the same measures were 0.0251 µM and 12.6 µM. In the case of `Cc1cc(C#N)cc(C)c1CNC(=O)c1ncc(F)cc1O` [Example 27, N-(4-cyano-2,6-dimethylbenzyl)-5-fluoro-3-hydroxypicolinamide], the IC50 in test [1] was 0.0158 µM. Moreover, in test [2], the EC50 is 6.31 µM. For `Cc1cc(C#N)cc(C)c1CNC(=O)c1ncc(C(F)(F)F)cc1O` [Example 28, N-(4-cyano-2,6-dimethylbenzyl)-3-hydroxy-5-(trifluoromethyl)picolinamide] the same measures were 0.0501 µM and 15.8 µM. With `COc1cnc(C(=O)NCc2c(C)cc(C#N)cc2C)c(O)c1` [Example 29, N-(4-cyano-2,6-dimethylbenzyl)-3-hydroxy-5-methoxypicolinamide], the IC50 in test [1] is 0.01 µM. For the same molecule, the EC50 in test [2] was 1.58 µM. For `N#Cc1ccc2c(c1)CC[C@H]2NC(=O)c1ncc(F)cc1O` [Example 30, (R)—N-(5-cyano-2,3-dihydro-1H-inden-1-yl)-5-fluoro-3-hydroxypicolinamide] the same measures were 0.0158 µM and 15.8 µM. The corresponding values for `N#Cc1ccc2c(c1)CC[C@H]2NC(=O)c1ncc(Cl)cc1O` [Example 31, (R)-5-chloro-N-(5-cyano-2,3-dihydro-1H-inden-1-yl)-3-hydroxypicolinamide] are 0.0316 µM and 25.1 µM.

As to `N#Cc1ccc2c(c1)CC[C@H]2NC(=O)c1ncc(C(F)(F)F)cc1O` [Example 32, (R)—N-(5-cyano-2,3-dihydro-1H-inden-1-yl)-3-hydroxy-5-(trifluoromethyl)picolinamide], the IC50 in test [1] was 0.126 µM. Also, in test [2], the EC50 was 39.8 µM. For `COc1cnc(C(=O)N[C@@H]2CCc3cc(C#N)ccc32)c(O)c1` [Example 33, (R)—N-(5-cyano-2,3-dihydro-1H-inden-1-yl)-3-hydroxy-5-methoxypicolinamide] the same measures were 0.00794 µM and 6.31 µM. As for `Cc1cc(C#N)ccc1CNC(=O)c1ncc(C(F)(F)F)cc1O` [Example 37, N-(4-cyano-2-methylbenzyl)-3-hydroxy-5-(trifluoromethyl)picolinamide], the IC50 in test [1] was 0.251 µM.

Values taken from patent US20200277262A1, “N-(CYANO-SUBSTITUTED BENZYL OR PYRIDINYLMETHYL)-3-HYDROXYPICOLINAMIDE DERIVATIVES” (Takeda Pharmaceutical Company Limited, priority 2017, published 2020).
